Data as given in patent US20140123342A1, “Regulation of Stomatal Apertures by Apyrases and Extracellular Nucleotides” (BOARD OF REGENTS, THE UNIVERSITY OF TEXAS SYSTEM, priority 2011, published 2014).

Assays:
Assay type in all cases: cell-based, Arabidopsis thaliana
[1] = test system: stomata (guard cells) in whole leaves; experiment: Stomatal aperture closure studies, whole leaves in the light; details: 10 μM, 2 h
Protocol: Stomatal Aperture Studies: Arabidopsis thaliana ecotypes Columbia (Col-0) and Wassilewskija (WS) were used as wild types in this study. Col-0, nia1nia2, atrbohD/F, R2-4A and WS plants were all grown on autoclaved Metro-Mix 200 soil at 22° C. under continuous light. The mutant seeds nia1nia2 nia2-5; CS 2356; Col-0 background) were obtained from Dr. N. M. Crawford (University of California at San Diego) and the mutant seeds atrbohD/F (Col-0 background) were obtained from Dr. J. M. Kwak (University of Maryland). The RNAi mutant apyrase line (R2-4A) is in WS background, so WS ecotype was used as the control wild type for these studies. Leaves from 2 to 3 week old Col-0 plants, or R2-4A and WS plants treated with 4 μM estradiol for 1 week after development of mature basal leaves were used for peel and whole leaf studies. Plants were placed in the dark and watered 24 h before an study. For opening studies, plants were used immediately after 24 h dark treatment and all treatments were done in the dark except for the light treated leaves or peels, thus the control stomata are dark controls. For closure studies, plants were placed in the light 3 h before an study to induce stomatal opening and all treatments were done in the light, thus the control stomata are light controls. For peel studies, epidermal peels were made from the underside of the leaf and treatments were applied to the peels for 1 h. For whole leaf studies, leaves were removed and treatments were applied for 2 h. For each treatment, about 3 or 4 peels collected from different leaves or 3 or 4 different leaves of at least two different plants were floated with the abaxial side up in petri dishes on 3 mL of Arabidopsis leaf buffer consisting of 10 mM KCl, 25 mM MES pH 6.15 (Melotto et al., 2006) and the chemical being tested. For whole leaf studies peels were collected after the treatment.
For studies testing the effects of ATPγS, ADPγS, AMPS, RB2, and PPADS (Sigma, St. Louis, Mo., USA) 20 mM stocks were made by dissolving the compounds in de-ionized water. For studies testing the effects of apyrase inhibitors, 7.5 mg/mL of NGXT191 and of inhibitor #13 (Windsor et al., 2002) was dissolved in dimethyl sulfoxide (DMSO) and then applied at a dilution of […] for a final concentration of 0.1% DMSO. ABA (Sigma, St. Louis, Mo., USA) was dissolved in ethanol in 10 mM stocks and then applied at a dilution of 1:1000. The stocks were stored at −20° C. while not in use. The production of the anti-AtAPY1 antibodies used is described by Steinebrunner et al. (2003). The crude immune and pre-immune sera were purified using protein A-Sepharose following the protocol described by Martin (1982) with the slight modification that the buffers used were azide-free. The protein-A purified sera were both used at a 1:1000 dilution in leaf stomatal aperture studies. The concentration of the immune and pre-immune sera, determined by Bradford assay (Bio-Rad), was 10.2 μg/mL and 7.7 μg/mL, respectively.
(§1) After treatment, photos of stomata were taken using a light microscope at 20×. Stomatal aperture width was measured using the image processing software ImageJ. Typically, photos were taken of 70 to 90 stomata per treatment of which only 50 stomata were measured for each treatment. For each treatment the ratio of closed stomata (width of 0) to open stomata was determined for all stomata imaged and this ratio was maintained in the 50 stomata that were measured for each treatment. Data shown uses apertures determined as width/length, however data in all studies also obtained as width only and generally width/length and width only data are in agreement with each other. Statistical significance of the measurements for the treatments was determined using the Student's t test in Microsoft Excel.

H2O2 in guard cells = experiment: Detection and quantification of H2O2 (H2DCFDA fluorescence); details: 10 μM, leaf epidermal tissue, after 30 min
Protocol: (§2) Detection and Quantification of H2O2 and NO: Col-0 plants were grown on soil for 2 to 4 weeks under continuous light at 21° C. Plants were placed in the dark for 24 h to ensure closure and then transferred to the light for 1 h. After 1 h in the light, mature basal leaves were excised and blended in a Waring blender on the low setting for approximately 10 s to isolate epidermal tissues, and the tissues were placed in 3 mL of 30 mM KCl, 10 mM Mes-KOH, pH 6.16 buffer in light for 2 h (Pei et al., 2000; Murata et al., 2001). DAF-2 DA and H2DCFDA were dissolved in DMSO to produce 5 mM and 10 mM stock solutions, respectively, and these were stored at −20° C. in 30 μL, aliquots. Fifty μM H2DCFDA or 15 μM DAF-2 DA was added to the medium in the dark, and after 30 min, 10 μM ABA, 200 μM ATPγS, or buffer (ATP control) was also added to the medium in the dark for 30 min. Peels were then rinsed by decanting the treatment solution and adding 3 mL fresh leaf buffer to the peels. Peels were rinsed twice as described. A peel from each of the three treatments (ABA, ATPγS and buffer) were placed on the same microscope slide and observed sequentially. A second study was staggered 30 to 45 min after the first by loading the H2DCFDA or DAF-2 DA dye to new peels 30 to 45 min after the first round of dye was added. Confocal laser scanning microscopy (CLSM) was performed with a Leica SP2 AOBS confocal microscope (Leica Microsystems, Bannockburn, Ill., USA). Laser power was set at 15%, with an excitation of 488 nm and an emission of 525 nm. A series of 0.5 μm optical sections with average intensity projection along the z axis were collected and made into one 2D image with greater focal depth. All images were obtained with the same software scanning settings including detector gain and laser intensity settings.

NO in guard cells = experiment: Detection and quantification of NO (DAF-2 DA fluorescence); details: 10 μM, leaf epidermal tissue, after 45 min
Protocol: as §2

[2] = test system: stomata of nia1nia2 mutant leaves; experiment: Stomatal closing studies with whole leaves of nia1nia2 mutant; details: 10 μM
Protocol: Stomatal Aperture Studies: Arabidopsis thaliana ecotypes Columbia (Col-0) and Wassilewskija (WS) were used as wild types in this study. Col-0, nia1nia2, atrbohD/F, R2-4A and WS plants were all grown on autoclaved Metro-Mix 200 soil at 22° C. under continuous light. The mutant seeds nia1nia2 nia2-5; CS 2356; Col-0 background) were obtained from Dr. N. M. Crawford (University of California at San Diego) and the mutant seeds atrbohD/F (Col-0 background) were obtained from Dr. J. M. Kwak (University of Maryland). The RNAi mutant apyrase line (R2-4A) is in WS background, so WS ecotype was used as the control wild type for these studies. […]
as §1, with “Statistical significance of the measurements for the treatments was determined using the Student's t test in Microsoft Excel.” left out

CC1=CC(=O)CC(C)(C)[C@@]1(O)/C=C/C(C)=C\C(=O)O [ABA, abscisic acid]
effect on stomatal aperture ([1]; both estradiol-treated WS wild-type and R2-4A plants): caused closure | effect on stomatal aperture ([1]; whole leaves, light): induced stomatal closure | increase in H2DCFDA fluorescence in guard cells (H2O2 in guard cells): 3 fold | increase in DAF-2 DA fluorescence in guard cells (NO in guard cells): 2.5 fold | effect on stomatal aperture [2]: no effect on stomatal aperture
